Columns and labels:
Format in all cases: cell-based
[1] = molecular target: T1, human cloned CHRM2 receptor (M2_CHO cells) (Homo sapiens, UniProt P08172); test: CHRM2 Ca++ Flux Assay (agonist mode, FDSS 7000EX); conditions: for Emax: Percent Activity measured to EC100 of Carbachol, read-out: M2 FDSS PA; for EC50: agonist mode, geometric mean if tested more than once, read-out: M2 FDSS EC50
T1 construct: expressed in transfected cells; host or cells: CHO-K1
T1 sequence (P08172 1-466): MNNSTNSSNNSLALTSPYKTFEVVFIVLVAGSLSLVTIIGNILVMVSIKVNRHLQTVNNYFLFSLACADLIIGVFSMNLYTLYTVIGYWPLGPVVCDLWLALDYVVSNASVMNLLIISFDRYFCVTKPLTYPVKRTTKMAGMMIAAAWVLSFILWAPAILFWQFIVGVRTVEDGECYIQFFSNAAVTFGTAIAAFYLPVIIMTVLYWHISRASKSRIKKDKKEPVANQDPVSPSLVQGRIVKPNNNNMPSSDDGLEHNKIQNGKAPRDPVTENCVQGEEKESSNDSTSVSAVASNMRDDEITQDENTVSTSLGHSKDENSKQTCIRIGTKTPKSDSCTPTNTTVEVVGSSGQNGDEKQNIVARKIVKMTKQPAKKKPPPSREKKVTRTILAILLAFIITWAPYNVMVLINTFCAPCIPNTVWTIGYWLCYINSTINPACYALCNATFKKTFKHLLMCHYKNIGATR
Method in brief: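 Response expressed as percent activity versus the Carbachol EC100, with curves fitted by four-parameter non-linear regression of triplicates. Stable M2_CHO cells were Ca++ dye-loaded and preincubated 60 min at room temperature in assay buffer containing 20 μM ATP; signal imaged for 3 minutes after compound.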

[2] = molecular target: T2, human cloned CHRM3 receptor (M3_CHO cells) (Homo sapiens, UniProt P20309); test: CHRM3 Ca++ Flux Assay (agonist mode, FDSS 7000EX); conditions: for Emax: Percent Activity measured to EC100 of Carbachol, read-out: M3 FDSS PA; for EC50: agonist mode, geometric mean if tested more than once, read-out: M3 FDSS EC50
T2 construct: expressed in transfected cells; host or cells: CHO-K1
Method in brief: (§1)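 CHO-K1 cells stably expressing human M3 or M5 receptor were dye-loaded for at least 1 h in HBSS with 20 mM HEPES and 2.5 mM probenecid, then given 11-point compound doses in triplicate.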

[3] = molecular target: T3, human cloned CHRM5 receptor (M5_CHO) (Homo sapiens, UniProt P08912); test: CHRM5 Ca++ Flux Assay (agonist mode, FDSS 7000EX); conditions: for Emax: Percent Activity measured to EC100 of Carbachol, read-out: M5 FDSS PA; for EC50: agonist mode, geometric mean if tested more than once, read-out: M5 FDSS EC50
T3 construct: expressed in transfected cells; host or cells: CHO (M5_CHO)
T3 sequence (P08912 1-532): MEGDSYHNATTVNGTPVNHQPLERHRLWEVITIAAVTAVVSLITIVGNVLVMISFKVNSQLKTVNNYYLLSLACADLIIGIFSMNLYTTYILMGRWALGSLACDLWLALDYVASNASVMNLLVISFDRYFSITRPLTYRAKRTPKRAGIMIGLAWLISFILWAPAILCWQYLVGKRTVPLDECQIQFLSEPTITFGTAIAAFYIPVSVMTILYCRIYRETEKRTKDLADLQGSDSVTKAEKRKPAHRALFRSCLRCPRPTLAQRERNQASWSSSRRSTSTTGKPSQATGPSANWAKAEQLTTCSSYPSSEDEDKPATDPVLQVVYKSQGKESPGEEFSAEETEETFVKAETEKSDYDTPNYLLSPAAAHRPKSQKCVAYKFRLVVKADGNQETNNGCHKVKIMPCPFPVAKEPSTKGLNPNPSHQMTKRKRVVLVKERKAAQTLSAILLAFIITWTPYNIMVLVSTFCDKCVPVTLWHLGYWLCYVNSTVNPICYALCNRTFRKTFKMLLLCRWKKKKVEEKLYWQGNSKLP
Method in brief: as §1

T2 sequence (P20309 whole entry): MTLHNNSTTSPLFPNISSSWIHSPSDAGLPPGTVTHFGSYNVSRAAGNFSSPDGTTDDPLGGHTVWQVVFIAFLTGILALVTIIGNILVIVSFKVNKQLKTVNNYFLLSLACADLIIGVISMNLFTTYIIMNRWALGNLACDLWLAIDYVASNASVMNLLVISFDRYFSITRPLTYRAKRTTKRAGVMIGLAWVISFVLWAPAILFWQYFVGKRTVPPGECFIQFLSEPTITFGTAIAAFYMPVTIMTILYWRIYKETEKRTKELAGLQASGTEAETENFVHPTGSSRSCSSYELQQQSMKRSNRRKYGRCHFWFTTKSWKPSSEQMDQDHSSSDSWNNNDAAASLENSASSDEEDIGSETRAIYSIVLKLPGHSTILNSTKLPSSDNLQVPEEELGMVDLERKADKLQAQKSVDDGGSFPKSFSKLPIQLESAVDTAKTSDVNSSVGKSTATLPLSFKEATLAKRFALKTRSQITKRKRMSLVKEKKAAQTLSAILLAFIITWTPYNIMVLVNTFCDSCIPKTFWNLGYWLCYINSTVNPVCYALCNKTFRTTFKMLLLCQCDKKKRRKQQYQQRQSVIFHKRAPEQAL

Row | Compound | Emax [1] [%] | Emax [2] [%] | EC50 [2] [µM] | Emax [3] [%] | EC50 [3] [µM] | EC50 [1] [µM]
1 | CC(C)(O)COc1ccccc1C1CCN([C@@H]2CCC3(C2)CN(c2cncnc2)C3)CC1 [Example 5B, (R)-2-methyl-1-(2-(1-(2-(pyrimidin-5-yl)-2-azaspiro[3.4]octan-6-yl)piperidin-4-yl)phenoxy)propan-2-ol] | 0 | 0 | > 25 | 0 | > 25 | –
2 | Cc1ncncc1N1CC2(CC[C@@H](N3CCC(c4ccccc4OCC(C)(C)O)CC3)C2)C1 [Example 5C, (R)-2-methyl-1-(2-(1-(2-(4-methylpyrimidin-5-yl)-2-azaspiro[3.4]octan-6-yl)piperidin-4-yl)phenoxy)propan-2-ol] | 0 | 0 | > 25 | 0 | > 25 | –
3 | COc1ccccc1C1CCN([C@@H]2CCC3(C2)CN(c2ccc(C)nc2)C3)CC1 [Example 5D, (R)-6-(4-(2-methoxyphenyl)piperidin-1-yl)-2-(6-methylpyridin-3-yl)-2-azaspiro[3.4]octane] | 0 | 0 | > 25 | 0 | > 25 | –
4 | COc1ccccc1C1CCN([C@@H]2CCC3(C2)CN(c2cnc(C)nc2)C3)CC1 [Example 5E, (R)-6-(4-(2-methoxyphenyl)piperidin-1-yl)-2-(2-methylpyrimidin-5-yl)-2-azaspiro[3.4]octane] | 0 | 0 | > 25 | 0 | > 25 | –
5 | COc1ccccc1C1CCN([C@@H]2CCC3(C2)CN(c2cncc(F)c2)C3)CC1 [Example 5F, (R)-2-(5-fluoropyridin-3-yl)-6-(4-(2-methoxyphenyl)piperidin-1-yl)-2-azaspiro[3.4]octane] | 26 | 0 | > 25 | 17 | 14.3 | –
6 | COc1ccccc1C1CCN([C@@H]2CCC3(C2)CN(c2cncc(C)n2)C3)CC1 [Example 5G, (R)-6-(4-(2-methoxyphenyl)piperidin-1-yl)-2-(6-methylpyrazin-2-yl)-2-azaspiro[3.4]octane] | 0 | 0 | > 25 | 0 | > 25 | –
7 | COc1ccccc1C1CCN([C@@H]2CCC3(C2)CN(c2cnccn2)C3)CC1 [Example 5H, (R)-6-(4-(2-methoxyphenyl)piperidin-1-yl)-2-(pyrazin-2-yl)-2-azaspiro[3.4]octane] | 0 | 0 | > 25 | 0 | > 25 | –
8 | COc1ccccc1C1CCN([C@@H]2CCC3(C2)CN(c2nccnc2C(F)(F)F)C3)CC1 [Example 5I, (R)-6-(4-(2-methoxyphenyl)piperidin-1-yl)-2-(3-(trifluoromethyl)pyrazin-2-yl)-2-azaspiro[3.4]octane] | 49 | 0 | > 25 | 0 | > 25 | 13.2
9 | COc1ccccc1C1CCN([C@@H]2CCC3(C2)CN(c2nccnc2C)C3)CC1 [Example 5J, (R)-6-(4-(2-methoxyphenyl)piperidin-1-yl)-2-(3-methylpyrazin-2-yl)-2-azaspiro[3.4]octane] | 0 | 0 | > 25 | 0 | > 25 | –
10 | COc1ccccc1C1CCN([C@@H]2CCC3(C2)CN(c2cccnc2)C3)CC1 [Example 5K, (R)-6-(4-(2-methoxyphenyl)piperidin-1-yl)-2-(pyridin-3-yl)-2-azaspiro[3.4]octane] | 18 | 0 | > 25 | 0 | > 25 | –
11 | Cc1ccc(N2CC3(CC[C@@H](N4CCC(c5ccccc5O[C@@H]5CCOC5)CC4)C3)C2)cn1 [Example 5L, (R)-2-(6-methylpyridin-3-yl)-6-(4-(2-(((R)-tetrahydrofuran-3-yl)oxy)phenyl)piperidin-1-yl)-2-azaspiro[3.4]octane] | 36 | 0 | 11.7 | 17 | 14.4 | 7.88

Reference: US12122761B2, “2-azaspiro[3.4]octane derivatives as M4 agonists” (NOVARTIS AG, priority 2019, dated 2024)
